The values that follow come from ChEMBL document CHEMBL4765228, “Indole-like Trk receptor antagonists” (Eur J Med Chem, 2016).

Experiment [1] concerns the target Casein kinase II subunit alpha (Homo sapiens) (UniProt P68400). The experiment can be described thus: Inhibition of human CK2alpha1 assessed as residual activity at 0.1 uM relative to control.
The target in experiment [2] is T1, Dual specificity protein kinase TTK (Homo sapiens) (UniProt P33981).
T1 sequence (whole entry): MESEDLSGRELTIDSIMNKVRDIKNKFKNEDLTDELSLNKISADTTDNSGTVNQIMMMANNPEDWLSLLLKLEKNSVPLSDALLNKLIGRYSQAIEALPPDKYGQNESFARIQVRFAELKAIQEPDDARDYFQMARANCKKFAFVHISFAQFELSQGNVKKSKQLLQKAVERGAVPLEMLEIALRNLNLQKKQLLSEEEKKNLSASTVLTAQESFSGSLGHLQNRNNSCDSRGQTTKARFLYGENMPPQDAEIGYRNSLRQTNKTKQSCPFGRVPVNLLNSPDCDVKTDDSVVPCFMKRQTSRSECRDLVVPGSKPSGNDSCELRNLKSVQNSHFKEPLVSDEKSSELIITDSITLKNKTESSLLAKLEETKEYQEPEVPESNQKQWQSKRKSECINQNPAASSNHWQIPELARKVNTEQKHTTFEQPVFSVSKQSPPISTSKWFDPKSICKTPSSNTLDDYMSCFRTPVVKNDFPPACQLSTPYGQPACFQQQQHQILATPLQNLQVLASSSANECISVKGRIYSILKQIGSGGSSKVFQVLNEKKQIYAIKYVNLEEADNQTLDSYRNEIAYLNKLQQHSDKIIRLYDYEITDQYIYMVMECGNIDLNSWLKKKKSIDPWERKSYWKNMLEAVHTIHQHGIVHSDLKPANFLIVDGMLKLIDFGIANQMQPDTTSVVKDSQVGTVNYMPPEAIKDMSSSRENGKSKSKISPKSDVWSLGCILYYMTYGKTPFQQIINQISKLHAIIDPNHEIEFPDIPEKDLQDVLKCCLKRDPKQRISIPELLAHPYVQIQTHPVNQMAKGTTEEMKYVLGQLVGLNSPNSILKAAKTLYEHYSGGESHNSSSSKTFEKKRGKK
Nature of the experiment: Inhibition of human TTK assessed as residual activity at 0.1 uM relative to control.

Experiment [3] has as its target Serine/threonine-protein kinase Nek6 (Homo sapiens) (UniProt Q9HC98). Nature of the experiment: Inhibition of human NEK6 assessed as residual activity at 1 uM relative to control.
The target in experiment [4] is T2, Interleukin-1 receptor-associated kinase 4 (Homo sapiens) (UniProt Q9NWZ3).
T2 sequence (whole entry): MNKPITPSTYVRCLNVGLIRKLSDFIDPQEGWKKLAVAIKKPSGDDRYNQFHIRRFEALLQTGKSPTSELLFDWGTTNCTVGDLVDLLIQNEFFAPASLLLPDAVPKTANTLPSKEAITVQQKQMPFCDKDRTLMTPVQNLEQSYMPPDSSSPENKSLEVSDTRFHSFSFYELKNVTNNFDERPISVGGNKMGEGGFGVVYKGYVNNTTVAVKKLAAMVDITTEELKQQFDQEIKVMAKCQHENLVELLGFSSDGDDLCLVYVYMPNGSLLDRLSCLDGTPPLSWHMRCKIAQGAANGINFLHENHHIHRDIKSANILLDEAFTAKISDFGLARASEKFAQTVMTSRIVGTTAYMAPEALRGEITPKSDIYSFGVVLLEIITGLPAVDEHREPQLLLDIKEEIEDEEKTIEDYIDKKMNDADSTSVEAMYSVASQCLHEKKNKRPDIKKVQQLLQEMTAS
The experiment can be described thus: Inhibition of human untagged IRAK4 assessed as residual activity at 0.1 uM relative to control.

Experiment [5] deals with Vascular endothelial growth factor receptor 1 (Homo sapiens) (UniProt P17948). Nature of the experiment: Inhibition of human VEGFR1 assessed as residual activity at 1 uM relative to control.
The target in experiment [6] is Serine/threonine-protein kinase pim-1 (Homo sapiens) (UniProt P11309). The experiment can be described thus: Inhibition of human PIM1 assessed as residual activity at 0.1 uM relative to control.
The target in experiment [7] is Receptor-interacting serine/threonine-protein kinase 2 (Homo sapiens) (UniProt O43353). The experiment can be described thus: Inhibition of human RIPK2 assessed as residual activity at 0.1 uM relative to control.
Experiment [8] has as its target Mitogen-activated protein kinase kinase kinase 11 (Homo sapiens) (UniProt Q16584). The experiment can be described thus: Inhibition of human MAP3K11 assessed as residual activity at 0.1 uM relative to control.
The target of experiment [9] is Rho-associated protein kinase 2 (Homo sapiens) (UniProt O75116). The experiment can be described thus: Inhibition of human ROCK2 assessed as residual activity at 1 uM relative to control.
The target in experiment [10] is T3, Serine/threonine-protein kinase D1 (Homo sapiens) (UniProt Q15139).
T3 sequence (whole entry): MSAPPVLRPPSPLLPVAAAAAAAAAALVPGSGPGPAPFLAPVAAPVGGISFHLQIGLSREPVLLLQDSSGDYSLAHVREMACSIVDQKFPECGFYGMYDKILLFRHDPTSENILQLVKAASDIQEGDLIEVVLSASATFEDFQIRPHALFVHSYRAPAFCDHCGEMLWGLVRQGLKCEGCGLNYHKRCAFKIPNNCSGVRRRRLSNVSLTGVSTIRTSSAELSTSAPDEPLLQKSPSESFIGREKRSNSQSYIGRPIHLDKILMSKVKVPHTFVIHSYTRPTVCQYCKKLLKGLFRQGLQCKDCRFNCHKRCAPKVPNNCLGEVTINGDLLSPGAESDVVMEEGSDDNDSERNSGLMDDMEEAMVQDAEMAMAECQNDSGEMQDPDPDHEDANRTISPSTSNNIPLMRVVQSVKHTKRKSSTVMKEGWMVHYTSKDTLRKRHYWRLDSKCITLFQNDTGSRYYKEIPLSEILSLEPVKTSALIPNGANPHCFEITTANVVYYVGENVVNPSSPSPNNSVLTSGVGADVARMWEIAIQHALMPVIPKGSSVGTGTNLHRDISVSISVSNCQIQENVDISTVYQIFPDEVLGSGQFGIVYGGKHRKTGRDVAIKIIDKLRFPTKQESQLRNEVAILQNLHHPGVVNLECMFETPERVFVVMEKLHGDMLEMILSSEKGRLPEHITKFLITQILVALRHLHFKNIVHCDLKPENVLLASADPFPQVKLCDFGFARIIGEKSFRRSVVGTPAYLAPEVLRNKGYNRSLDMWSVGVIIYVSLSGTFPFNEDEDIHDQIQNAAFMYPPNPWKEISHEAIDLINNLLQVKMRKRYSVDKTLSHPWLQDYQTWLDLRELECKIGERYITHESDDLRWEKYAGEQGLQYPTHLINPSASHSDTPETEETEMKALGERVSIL
The experiment can be described thus: Inhibition of human PKCmu assessed as residual activity at 0.1 uM relative to control.

In experiment [11] the target is T1, Dual specificity protein kinase TTK (Homo sapiens). The experiment can be described thus: Inhibition of human TTK assessed as residual activity at 1 uM relative to control.
For experiment [12], the target named is Homeodomain-interacting protein kinase 2 (Homo sapiens) (UniProt Q9H2X6). The experiment can be described thus: Inhibition of human HIPK2 assessed as residual activity at 0.1 uM relative to control.
Experiment [13] deals with RAC-alpha serine/threonine-protein kinase (Homo sapiens) (UniProt P31749). Nature of the experiment: Inhibition of human AKT1 (104 to 408 residues) assessed as residual activity at 0.1 uM relative to control.
Chain of RAC-alpha serine/threonine-protein kinase (Homo sapiens) (P31749 whole entry, the tested form may be a part): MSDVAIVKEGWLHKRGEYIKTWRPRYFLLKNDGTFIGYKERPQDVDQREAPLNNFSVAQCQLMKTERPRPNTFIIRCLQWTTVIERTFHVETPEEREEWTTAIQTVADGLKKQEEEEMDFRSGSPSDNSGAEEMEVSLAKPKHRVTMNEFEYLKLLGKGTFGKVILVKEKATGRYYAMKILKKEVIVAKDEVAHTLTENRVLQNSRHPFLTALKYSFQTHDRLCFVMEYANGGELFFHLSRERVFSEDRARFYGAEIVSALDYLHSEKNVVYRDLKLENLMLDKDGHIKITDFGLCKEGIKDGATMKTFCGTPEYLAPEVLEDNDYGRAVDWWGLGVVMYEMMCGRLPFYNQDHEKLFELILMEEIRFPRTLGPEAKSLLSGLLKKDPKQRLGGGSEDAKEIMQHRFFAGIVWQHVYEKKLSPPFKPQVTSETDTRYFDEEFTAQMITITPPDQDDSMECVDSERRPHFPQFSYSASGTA

Chain of Casein kinase II subunit alpha (Homo sapiens) (P68400 whole entry, looked up): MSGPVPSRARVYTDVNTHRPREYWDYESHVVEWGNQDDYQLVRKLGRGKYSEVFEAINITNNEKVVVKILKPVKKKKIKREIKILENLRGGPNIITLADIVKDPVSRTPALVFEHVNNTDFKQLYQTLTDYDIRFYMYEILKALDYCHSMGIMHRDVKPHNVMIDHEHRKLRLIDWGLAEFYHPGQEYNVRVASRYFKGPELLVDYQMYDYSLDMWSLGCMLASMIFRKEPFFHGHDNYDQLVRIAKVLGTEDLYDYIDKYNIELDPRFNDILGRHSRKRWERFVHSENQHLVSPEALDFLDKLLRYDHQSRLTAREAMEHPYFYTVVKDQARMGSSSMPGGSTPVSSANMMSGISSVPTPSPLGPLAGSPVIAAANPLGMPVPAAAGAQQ
Chain of Vascular endothelial growth factor receptor 1 (Homo sapiens) (P17948 whole entry): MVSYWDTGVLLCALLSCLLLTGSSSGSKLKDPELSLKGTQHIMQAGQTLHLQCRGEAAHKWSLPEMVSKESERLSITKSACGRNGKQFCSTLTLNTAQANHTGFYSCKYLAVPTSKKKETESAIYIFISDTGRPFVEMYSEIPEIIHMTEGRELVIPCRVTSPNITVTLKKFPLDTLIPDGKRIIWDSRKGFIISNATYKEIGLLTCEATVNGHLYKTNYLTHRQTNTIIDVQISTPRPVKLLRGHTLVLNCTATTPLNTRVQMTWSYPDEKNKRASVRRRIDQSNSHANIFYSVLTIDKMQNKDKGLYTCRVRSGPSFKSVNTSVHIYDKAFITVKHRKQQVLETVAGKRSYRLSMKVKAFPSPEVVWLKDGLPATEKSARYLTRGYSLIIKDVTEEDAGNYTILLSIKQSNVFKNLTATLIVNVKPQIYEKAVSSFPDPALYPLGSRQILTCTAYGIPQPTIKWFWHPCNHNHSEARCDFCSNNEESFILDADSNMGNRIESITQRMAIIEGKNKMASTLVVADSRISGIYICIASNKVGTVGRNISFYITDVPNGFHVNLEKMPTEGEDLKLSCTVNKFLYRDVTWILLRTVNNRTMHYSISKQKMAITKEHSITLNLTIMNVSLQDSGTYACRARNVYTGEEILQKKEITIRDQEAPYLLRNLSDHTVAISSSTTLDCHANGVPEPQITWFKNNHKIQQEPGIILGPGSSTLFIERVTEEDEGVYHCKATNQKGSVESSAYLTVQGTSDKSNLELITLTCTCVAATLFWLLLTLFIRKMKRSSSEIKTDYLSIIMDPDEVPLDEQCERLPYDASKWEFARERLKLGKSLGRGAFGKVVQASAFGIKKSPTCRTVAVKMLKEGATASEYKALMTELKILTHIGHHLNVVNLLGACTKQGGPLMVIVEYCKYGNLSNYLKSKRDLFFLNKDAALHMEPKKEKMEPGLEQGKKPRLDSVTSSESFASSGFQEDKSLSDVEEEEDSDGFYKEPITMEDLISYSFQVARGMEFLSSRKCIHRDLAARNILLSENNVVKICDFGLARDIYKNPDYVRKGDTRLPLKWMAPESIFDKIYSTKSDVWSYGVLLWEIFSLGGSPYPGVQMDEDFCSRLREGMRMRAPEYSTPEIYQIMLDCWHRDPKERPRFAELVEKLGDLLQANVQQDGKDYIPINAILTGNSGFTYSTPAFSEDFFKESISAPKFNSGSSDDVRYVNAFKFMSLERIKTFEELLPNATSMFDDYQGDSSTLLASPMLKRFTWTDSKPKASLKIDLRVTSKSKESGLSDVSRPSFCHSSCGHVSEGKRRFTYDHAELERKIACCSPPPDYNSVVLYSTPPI
Chain of Mitogen-activated protein kinase kinase kinase 11 (Homo sapiens) (Q16584 whole entry, looked up): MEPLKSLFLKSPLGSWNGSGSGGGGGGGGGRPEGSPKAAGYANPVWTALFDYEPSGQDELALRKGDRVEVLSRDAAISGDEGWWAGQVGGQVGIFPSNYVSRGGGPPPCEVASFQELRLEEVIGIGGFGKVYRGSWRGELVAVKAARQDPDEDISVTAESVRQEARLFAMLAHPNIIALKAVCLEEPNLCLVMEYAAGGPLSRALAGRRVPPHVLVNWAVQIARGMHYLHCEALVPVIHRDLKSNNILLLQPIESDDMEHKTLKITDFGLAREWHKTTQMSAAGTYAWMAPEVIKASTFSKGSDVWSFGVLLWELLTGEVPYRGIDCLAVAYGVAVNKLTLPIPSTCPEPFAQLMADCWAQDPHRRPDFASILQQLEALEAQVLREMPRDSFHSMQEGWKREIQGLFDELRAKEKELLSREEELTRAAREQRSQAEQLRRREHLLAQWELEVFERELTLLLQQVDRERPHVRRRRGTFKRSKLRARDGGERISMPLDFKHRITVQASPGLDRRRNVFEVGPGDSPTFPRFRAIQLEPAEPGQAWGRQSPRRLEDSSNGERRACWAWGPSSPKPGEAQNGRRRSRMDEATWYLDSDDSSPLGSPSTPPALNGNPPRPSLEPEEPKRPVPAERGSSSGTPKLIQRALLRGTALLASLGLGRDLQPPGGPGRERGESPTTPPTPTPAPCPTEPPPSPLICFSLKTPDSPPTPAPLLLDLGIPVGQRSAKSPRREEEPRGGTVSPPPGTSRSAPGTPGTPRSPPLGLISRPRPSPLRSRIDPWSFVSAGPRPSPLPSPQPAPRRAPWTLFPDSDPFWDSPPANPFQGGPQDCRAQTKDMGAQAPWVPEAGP
Chain of Receptor-interacting serine/threonine-protein kinase 2 (Homo sapiens) (O43353 whole entry): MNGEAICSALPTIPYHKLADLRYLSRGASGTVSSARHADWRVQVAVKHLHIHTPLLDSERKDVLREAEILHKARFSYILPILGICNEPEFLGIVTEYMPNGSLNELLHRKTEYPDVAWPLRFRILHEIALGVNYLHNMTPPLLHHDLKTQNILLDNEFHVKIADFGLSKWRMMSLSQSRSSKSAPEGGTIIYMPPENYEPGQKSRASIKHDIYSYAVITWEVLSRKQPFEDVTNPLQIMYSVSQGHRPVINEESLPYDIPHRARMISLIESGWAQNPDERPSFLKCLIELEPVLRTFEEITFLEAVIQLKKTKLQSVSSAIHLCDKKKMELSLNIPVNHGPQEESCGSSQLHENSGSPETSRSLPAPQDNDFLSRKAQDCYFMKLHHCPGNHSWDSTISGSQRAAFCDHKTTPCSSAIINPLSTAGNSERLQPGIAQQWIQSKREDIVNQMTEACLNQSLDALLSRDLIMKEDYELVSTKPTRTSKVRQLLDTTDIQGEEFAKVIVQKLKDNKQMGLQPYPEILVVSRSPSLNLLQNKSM
Chain of Rho-associated protein kinase 2 (Homo sapiens) (O75116 whole entry, looked up): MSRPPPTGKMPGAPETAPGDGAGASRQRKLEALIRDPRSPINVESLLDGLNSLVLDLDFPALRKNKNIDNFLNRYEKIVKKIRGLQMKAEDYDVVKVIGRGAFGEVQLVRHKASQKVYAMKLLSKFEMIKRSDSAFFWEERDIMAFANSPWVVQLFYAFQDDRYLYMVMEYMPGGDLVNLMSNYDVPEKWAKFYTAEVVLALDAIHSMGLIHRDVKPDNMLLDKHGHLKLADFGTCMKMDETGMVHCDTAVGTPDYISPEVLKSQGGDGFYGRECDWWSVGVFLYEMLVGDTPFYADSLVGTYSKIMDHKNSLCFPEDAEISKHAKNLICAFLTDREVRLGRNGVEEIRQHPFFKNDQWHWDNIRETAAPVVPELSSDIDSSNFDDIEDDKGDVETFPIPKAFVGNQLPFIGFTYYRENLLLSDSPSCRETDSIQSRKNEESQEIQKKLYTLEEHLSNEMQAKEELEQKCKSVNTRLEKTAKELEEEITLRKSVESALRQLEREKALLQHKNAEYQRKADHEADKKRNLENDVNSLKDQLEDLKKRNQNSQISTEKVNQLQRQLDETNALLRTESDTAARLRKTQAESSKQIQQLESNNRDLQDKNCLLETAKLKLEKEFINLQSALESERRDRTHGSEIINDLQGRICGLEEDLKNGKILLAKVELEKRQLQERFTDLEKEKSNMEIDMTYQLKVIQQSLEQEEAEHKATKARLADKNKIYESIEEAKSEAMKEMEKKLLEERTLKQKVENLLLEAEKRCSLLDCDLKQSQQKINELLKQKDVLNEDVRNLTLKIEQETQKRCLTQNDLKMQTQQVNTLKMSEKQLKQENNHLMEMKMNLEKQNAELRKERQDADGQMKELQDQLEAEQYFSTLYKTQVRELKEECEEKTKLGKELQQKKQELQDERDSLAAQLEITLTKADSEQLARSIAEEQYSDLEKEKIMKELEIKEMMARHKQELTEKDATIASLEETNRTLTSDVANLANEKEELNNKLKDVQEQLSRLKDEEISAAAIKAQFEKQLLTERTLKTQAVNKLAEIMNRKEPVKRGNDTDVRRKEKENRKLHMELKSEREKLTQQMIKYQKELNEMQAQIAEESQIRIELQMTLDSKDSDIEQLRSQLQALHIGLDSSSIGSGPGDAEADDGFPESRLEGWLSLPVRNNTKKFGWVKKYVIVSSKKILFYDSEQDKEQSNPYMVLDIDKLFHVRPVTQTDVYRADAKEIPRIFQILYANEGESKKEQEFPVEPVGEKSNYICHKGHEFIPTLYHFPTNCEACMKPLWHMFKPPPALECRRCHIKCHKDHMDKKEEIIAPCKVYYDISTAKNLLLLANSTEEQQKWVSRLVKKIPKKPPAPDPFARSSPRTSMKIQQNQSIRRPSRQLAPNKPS

Turning to `CNS(=O)(=O)c1ccc2c(c1)/C(=C/c1cn(C)c3ccc(OC)cc13)C(=O)N2`, the Activity was 105% in experiment [1]; 99% in [2]; 97% in experiment [3]; 59% in experiment [4]; 59% in experiment [5]; 94% in [6]. Also, the Activity in experiment [7] came out at 108%; in experiment [8], 76%; in experiment [9], 79%; in experiment [10], 92%; in experiment [11] it was 86%; in [12], 106%. Moreover, the Activity in [13] was 93%.

For `CN(C)S(=O)(=O)c1ccc2c(c1)/C(=C/c1cn(C)c3ccc(O)cc13)C(=O)N2`, the Activity in experiment [1] was 97%; in [2] it was 104%; in experiment [3], 103%; in [4], 68%; in [5], 93%; in [6] it was 102%. Besides, the Activity in experiment [7] was determined as 94%; in [8], 80%; in experiment [9], 69%; in experiment [10], 99%; in [11], 96%; in [12], 120%. The Activity in experiment [13] is 105%.

For `COc1ccc2[nH]cc(/C=C3\C(=O)Nc4ccc(S(N)(=O)=O)cc43)c2c1`, the Activity in experiment [1] was 90%; in [2], 101%; in experiment [3], 108%; in [4], 45%; in experiment [5] it was 76%; in experiment [6], 103%. Besides, the Activity in experiment [7] was found to be 96%; in experiment [8], 66%; in [9], 61%; in [10], 95%; in experiment [11], 80%; in [12] it was 124%. Also, the Activity in [13] amounted to 115%.

Take `COc1ccc2c(c1)c(/C=C1\C(=O)Nc3ccc(S(=O)(=O)N(C)C)cc31)cn2C`: the Activity came to 98% in experiment [1]; 102% in experiment [2]; 100% in experiment [3]; 91% in experiment [4]; 93% in [5]; 104% in [6]. Further, the Activity in [7] amounted to 104%; in experiment [8], 84%; in experiment [9] it was 89%; in experiment [10], 89%; in [11], 106%; in experiment [12], 109%. In addition, the Activity in experiment [13] was determined as 101%.

On to `COc1ccc2c(c1)c(/C=C1\C(=O)Nc3ccc(S(N)(=O)=O)cc31)cn2C`, for which the Activity came out at 101% in [1]; 109% in experiment [2]; 98% in experiment [3]; 12% in [4]; 85% in experiment [5]; 96% in [6]. Also, the Activity in [7] is 100%; in [8] it was 34%; in experiment [9] it was 87%; in experiment [10], 90%; in [11], 96%; in experiment [12], 108%. In addition, in experiment [13], the Activity came to 92%.

With `Cn1cc(/C=C2\C(=O)Nc3ccc(S(N)(=O)=O)cc32)c2ccccc21`, the Activity stood at 102% in experiment [1]; 104% in experiment [2]; 109% in [3]; 6% in experiment [4]; 81% in experiment [5]; 105% in experiment [6]. The Activity stood at 102% in experiment [7]; 36% in experiment [8]; 55% in [9]; 95% in [10]; 85% in [11]; 112% in experiment [12]. In experiment [13], the Activity came to 92%.
